Measurements taken from patent publication US12662707B2, “MYC amplification drives resistance to pan-RAS inhibitors in pancreatic cancer” (The Trustees of Columbia University in the City of New York, priority 2024, dated 2026).

Legend:
Assay type in all cases: in vivo, mouse
[1] = tested on: human DUSP6 expression in Capan-1 CDX tumors; assay: PK/PD in Capan-1 xenograft tumors (DUSP6 qRT-PCR)
Protocol: Tumor-bearing animals were randomized and assigned into groups (n=3-10/group). Vehicle or RMC-7977 was administered via oral gavage daily at 10 mg/kg and animals were treated for 21-28 days. Studies were terminated early if tumor burden reached humane endpoint. Body weights were collected twice a week during the study. Means±s.e.m were plotted in the waterfall plots. For the single-dose pharmacokinetic/pharmacodynamic (PK/PD) study, mice were randomized and assigned into groups (n=3-6/dose/timepoint). A single dose of RMC-7977 was administered orally at 10 mg/kg, 25 mg/kg and 50 mg/kg. […]
Whole blood, tumor, colon and skin tissue concentrations of RMC-7977 were determined using liquid chromatography-tandem mass spectrometry (LC-MS/MS) methods. […] After thorough mixing and centrifugation, the supernatant was directly analyzed on a Sciex 6500+ triple quadrupole mass spectrometer equipped with an ACQUITY or Shimadzu UPLC system. […] RMC-7977 and IS (verapamil or terfenadine) were detected by positive electrospray ionization using multiple reaction monitoring (RMC-7977: m/z 865.4/706.4 or m/z 865.3/833.5; verapamil: m/z 455.2/164.9; terfenadine: m/z 472.3/436.4). The lower limit of quantification was 0.5 ng/mL or 2.0 ng/mL for blood, tumor, and other tissue. […]

CC3+ apoptotic cells = assay: CC3 IHC in Capan-1 xenograft model (tumor, colon, skin)
Protocol: Studies were terminated early if tumor burden reached humane endpoint. Body weights were collected twice a week during the study. Means±s.e.m were plotted in the waterfall plots. For the single-dose pharmacokinetic/pharmacodynamic (PK/PD) study, mice were randomized and assigned into groups (n=3-6/dose/timepoint). […] Sakura, 4583) solution or snap-frozen in LN2 for further analysis. Whole blood was transferred into K2EDTA Microtainer tubes (BD, 365974), incubated for 5 minutes and snap-frozen in LN2. To stain tissues collected from the Capan-1 xenograft model, a similar protocol was used with the following changes. Sections were stained using a Leica BOND automated staining system and primary antibodies were detected with the Leica BOND Polymer detection kit (3-P—PV6119). Stained slides were scanned and digitized with a 3DHistotech Pannoramic whole slide scanner at 20× magnification. Image analysis was performed using HALO software from Indica Labs.

[2] = tested on: autochthonous KPCY pancreatic tumors; assay: Short-term study in KPCY mice; conditions: daily 25 mg/kg, two weeks
Protocol: Animals were randomized into groups and treated with Vehicle (n=6) or RMC-7977 (25 mg/kg; n=8). Treatments were performed every day via oral gavage for 15 days and ultrasounds were performed on day 8 and 15. Animals were sacrificed after last dose and tissue was collected and preserved as previously described (See Xenograft studies section).

## CCn1c(-c2cc(N3CCN(C4CC4)CC3)cnc2[C@H](C)OC)c2c3cc(ccc31)-c1csc(n1)C[C@H](NC(=O)[C@H]1[C@@H]3COC[C@@H]31)C(=O)N1CCC[C@H](N1)C(=O)OCC(C)(C)C2 [RMC-7977]
[1]; Mus musculus, CAPAN-1, read-out: EC50, inhibition of DUSP6 expression vs RMC-7977 concentration in tumors
  EC50: 0.142 µM
[1]; single dose 10, 25 or 50 mg/kg
  duration of DUSP6 inhibition post-dose: 24 to 48 h
CC3+ apoptotic cells; Capan-1 CDX tumors
  time of peak of CC3+ apoptotic cells post-dose: 8 h
CC3+ apoptotic cells; Capan-1 CDX tumors, single dose
  CC3+ apoptotic cells in tumors relative to vehicle: notable increase
CC3+ apoptotic cells; tumor-bearing animals, any timepoint
  apoptotic cells in colon or skin: few apoptotic cells
[2]; KPCY, C57Bl/6
  tumor response: regressions in most tumors
[2]
  impact on animal weight: little impact
